Results reported in US7772180B2, “Hepatitis C virus inhibitors” (Bristol-Myers Squibb Company, priority 2006, dated 2010).
Like-named read-outs stand apart in the source and are kept apart here.

Legend:
[1] = molecular target: T1, HCV NS3/4A protease complex, BMS strain (UniProt P27958, species not given/STRAIN_BMS); assay: FRET peptide assay to monitor HCV NS3/4A proteolytic activity (BMS strain); type: biochemical, Hepatitis C virus (genotype 1a)
T1 construct: other: NS3/4A BMS strain; activity range class; numeric values, unit not given; said of H77 and J4L6S; fused on or other part: A three-lysine solubilising tail at the C-terminus of NS4A; A His tag is implied by the pET21b vector and Ni-NTA purification; Both are printed for the H77 and J4L6S constructs and apply to BMS by inference
In short: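 Purified recombinant NS3/4A complex from genotype 1a BMS strain, 2-3 nM final, with RET S1 EDANS/DABCYL depsipeptide substrate at 2 μM final in HEPES pH 7.5, NaCl, Triton, glycerol, βME. Cleavage followed in real time by fluorescence. For high-potency compounds: 50 μg/ml BSA added, protease lowered to 300 pM.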

[2] = tested on: HCV replicon (strain 1b) in HUH-7 cells; assay: HCV replicon FRET assay; type: cell-based, Hepatitis C virus
[3] = read-out: HCV Protease (IC50); NS3/4A BMS strain; activity range class
[4] = Hepatitis C virus, Huh-7, read-out: HCV Pro Replicon (EC50), HCV replicon cell assay, activity range class
[5] = read-out: HCV Pro Replicon (EC50), HCV replicon cell assay, activity range class

T1 sequence (P27958 1027-1657, change not shown, one chain of several): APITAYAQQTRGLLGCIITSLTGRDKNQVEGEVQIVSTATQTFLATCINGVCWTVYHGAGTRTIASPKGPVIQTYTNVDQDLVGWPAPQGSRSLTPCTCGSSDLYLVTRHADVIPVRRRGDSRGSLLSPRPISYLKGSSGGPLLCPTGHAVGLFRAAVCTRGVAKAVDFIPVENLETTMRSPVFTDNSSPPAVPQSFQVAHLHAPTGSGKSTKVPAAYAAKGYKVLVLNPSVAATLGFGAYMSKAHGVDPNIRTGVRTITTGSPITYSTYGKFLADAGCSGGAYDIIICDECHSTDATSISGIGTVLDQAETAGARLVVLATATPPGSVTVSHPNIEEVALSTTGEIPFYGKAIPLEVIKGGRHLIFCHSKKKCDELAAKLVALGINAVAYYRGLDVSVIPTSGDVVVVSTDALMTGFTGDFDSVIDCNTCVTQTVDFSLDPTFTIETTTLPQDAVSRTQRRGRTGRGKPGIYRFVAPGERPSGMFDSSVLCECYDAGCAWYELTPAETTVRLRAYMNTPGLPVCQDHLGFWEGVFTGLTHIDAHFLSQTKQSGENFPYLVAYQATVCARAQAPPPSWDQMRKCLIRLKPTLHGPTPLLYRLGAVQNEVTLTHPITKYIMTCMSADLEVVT

| Compound | IC50 [1, 3] | EC50 [2, 4] | also measured |
| --- | --- | --- | --- |
| C=C[C@@H]1C[C@]1(NC(=O)[C@@H]1C[C@@H](Oc2ncc(OC)c3ccc(Cl)cc23)CN1C(=O)[C@H](Nc1cccc(C(=O)OC)c1)C(C)(C)C)C(=O)NS(=O)(=O)C1CC1 [232 second isomer, N-(3-(methoxycarbonyl)phenyl)-3-methyl-D-valyl-(4R)-4-((7-chloro-4-methoxy-1-isoquinolinyl)oxy)-N-((1R,2S)-1-((cyclopropylsulfonyl)carbamoyl)-2-vinylcyclopropyl)-L-prolinamide] | 0.02 to 0.2 µM | 0.003 to 0.1 µM |  |
| (4R)-4-((7-chloro-4-methoxy-1-isoquinolinyl)oxy)-N-((1R,2S)-1-((cyclopropylsulfonyl)carbamoyl)-2-vinylcyclopropyl)-1-((2R)-2-((4-ethoxy-1,2,5-thiadiazol-3-yl)amino)butanoyl)-L-prolinamide [Compound 233B] |  |  | IC50 ([1]; NS3/4A BMS strain; numeric values, unit inferred; read-out: HCV Protease (IC50)): 1.3 µM; EC50 ([2]; HCV replicon cell assay, numeric values, unit inferred, read-out: HCV Pro Replicon (EC50)): 2.63 µM |
| C=C[C@@H]1C[C@]1(NC(=O)[C@@H]1C[C@@H](Oc2ncc(OC)c3ccc(Cl)cc23)CN1C(=O)C(Nc1cccc(C(=O)NC)c1)C(C)(C)C)C(=O)NS(=O)(=O)C1CC1 (some centres unmarked) [Compound 202A] | 0.0006 to 0.02 µM | 0.003 to 0.1 µM |  |
| C=C[C@@H]1C[C@]1(NC(=O)[C@@H]1C[C@@H](Oc2ncc(OC)c3ccc(Cl)cc23)CN1C(=O)C(Nc1ccc(OC)nc1)C(C)(C)C)C(=O)NS(=O)(=O)C1CC1 (single isomer, unassigned) [408 first isomer] | 0.0006 to 0.02 µM |  | EC50 [2, 5]: 0.003 to 0.1 µM |
| C=C[C@@H]1C[C@]1(NC(=O)[C@@H]1C[C@@H](Oc2nccc3cc(OC)ccc23)CN1C(=O)[C@@H](Nc1nc(OC)nc(OC)n1)C(C)(C)C)C(=O)NS(=O)(=O)C1CC1 [Compound 3, N-(4,6-dimethoxy-1,3,5-triazin-2-yl)-3-methyl-L-valyl-(4R)—N-((1R,2S)-1-((cyclopropylsulfonyl)carbamoyl)-2-vinylcyclopropyl)-4-((6-methoxy-1-isoquinolinyl)oxy)-L-prolinamide] | 0.0006 to 0.02 µM | > 1 µM |  |
| C=C[C@@H]1C[C@]1(NC(=O)[C@@H]1C[C@@H](Oc2nc(N(C)C)cc3cc(OC)ccc23)CN1C(=O)C(Nc1cc(C)cc(C)n1)C(C)C)C(=O)NS(=O)(=O)C1CC1 (stereo partly drawn) [Compound 17, N-(4,6-dimethyl-2-pyridinyl)valyl-(4R)—N-((1R,2S)-1-((cyclopropylsulfonyl)carbamoyl)-2-vinylcyclopropyl)-4-((3-(dimethylamino)-6-methoxy-1-isoquinolinyl)oxy)-L-prolinamide] | 0.0006 to 0.02 µM | 0.003 to 0.1 µM |  |
| C=C[C@@H]1C[C@]1(NC(=O)[C@@H]1C[C@@H](Oc2ncc(OC)c3ccc(Cl)cc23)CN1C(=O)[C@H](Nc1cccc(S(=O)(=O)NC)c1)C(C)(C)C)C(=O)NS(=O)(=O)C1CC1 [227 second isomer, 3-methyl-N-(3-(methylsulfamoyl)phenyl)-D-valyl-(4R)-4-((7-chloro-4-methoxy-1-isoquinolinyl)oxy)-N-((1R,2S)-1-((cyclopropylsulfonyl)carbamoyl)-2-vinylcyclopropyl)-L-prolinamide] | > 0.2 µM | > 1 µM |  |
| C=C[C@@H]1C[C@]1(NC(=O)[C@@H]1C[C@@H](Oc2ncc(OC)c3ccc(Cl)cc23)CN1C(=O)C(Nc1cc(Cl)cc(Cl)n1)C(C)(C)C)C(=O)NS(=O)(=O)C1CC1 (single isomer, unassigned) [Compound 32B] | > 0.2 µM | > 1 µM |  |
| C=C[C@@H]1C[C@]1(NC(=O)[C@@H]1C[C@@H](Oc2ncc(OC)c3ccc(Cl)cc23)CN1C(=O)[C@@H](Nc1cccc(F)c1F)C(C)(C)C)C(=O)NS(=O)(=O)C1CC1 [208 first isomer, N-(2,3-difluorophenyl)-3-methyl-L-valyl-(4R)-4-((7-chloro-4-methoxy-1-isoquinolinyl)oxy)-N-((1R,2S)-1-((cyclopropylsulfonyl)carbamoyl)-2-vinylcyclopropyl)-L-prolinamide] | 0.0006 to 0.02 µM | 0.003 to 0.1 µM |  |
| C=C[C@@H]1C[C@]1(NC(=O)[C@@H]1C[C@@H](Oc2ncc(OC)c3ccc(Cl)cc23)CN1C(=O)[C@@H](Nc1cccc(C(=O)NC(C)(C)c2ccccc2)c1)C(C)(C)C)C(=O)NS(=O)(=O)C1CC1 (single isomer, unassigned; isomer 3) [216 first isomer] |  |  | IC50 ([1]; NS3/4A BMS strain; activity range class; read-out: HCV Protease (IC50)): 0.0006 to 0.02 µM; EC50 ([2]; HCV replicon cell assay, activity range class, read-out: HCV Pro Replicon (EC50)): 0.003 to 0.1 µM |
| C=C[C@@H]1C[C@]1(NC(=O)[C@@H]1C[C@@H](Oc2nccc3cc(OC)ccc23)CN1C(=O)C(Nc1nc(OC)cc(OC)n1)C(C)C)C(=O)NS(=O)(=O)C1CC1 (mixture of isomers) [Compound 5, N-(4,6-dimethoxy-2-pyrimidinyl)valyl-(4R)—N-((1R,2S)-1-((cyclopropylsulfonyl)carbamoyl)-2-vinylcyclopropyl)-4-((6-methoxy-1-isoquinolinyl)oxy)-L-prolinamide] | 0.02 to 0.2 µM | 0.1 to 1 µM |  |
| C=C[C@@H]1C[C@]1(NC(=O)[C@@H]1C[C@@H](Oc2ncc(OC)c3ccc(Cl)cc23)CN1C(=O)[C@H](Nc1cccc(C(=O)N(C)C)c1)C(C)(C)C)C(=O)NS(=O)(=O)C1CC1 [218 second isomer, N-(3-(dimethylcarbamoyl)phenyl)-3-methyl-D-valyl-(4R)-4-((7-chloro-4-methoxy-1-isoquinolinyl)oxy)-N-((1R,2S)-1-((cyclopropylsulfonyl)carbamoyl)-2-vinylcyclopropyl)-L-prolinamide] | > 0.2 µM | > 1 µM |  |
| C=C[C@@H]1C[C@]1(NC(=O)[C@@H]1C[C@@H](Oc2nccc3cc(OC)ccc23)CN1C(=O)C(Nc1cc(C)ccn1)C(C)C)C(=O)NS(=O)(=O)C1CC1 (single isomer, unassigned) [Compound 10] | 0.0006 to 0.02 µM | 0.003 to 0.1 µM |  |
| C=C[C@@H]1C[C@]1(NC(=O)[C@@H]1C[C@@H](Oc2ncc(OC)c3ccc(Cl)cc23)CN1C(=O)[C@@H](Nc1cccc(C(=O)N(C)C)c1)C(C)(C)C)C(=O)NS(=O)(=O)C1CC1 [218 first isomer, N-(3-(dimethylcarbamoyl)phenyl)-3-methyl-L-valyl-(4R)-4-((7-chloro-4-methoxy-1-isoquinolinyl)oxy)-N-((1R,2S)-1-((cyclopropylsulfonyl)carbamoyl)-2-vinylcyclopropyl)-L-prolinamide] | 0.0006 to 0.02 µM | 0.003 to 0.1 µM |  |
| C=C[C@@H]1C[C@]1(NC(=O)[C@@H]1C[C@@H](Oc2ncc(OC)c3ccc(Cl)cc23)CN1C(=O)C(Nc1cc(C)nc(C)c1)C(C)(C)C)C(=O)NS(=O)(=O)C1CC1 (single isomer, unassigned) [Compound 29A] | 0.0006 to 0.02 µM | 0.1 to 1 µM |  |
| C=C[C@@H]1C[C@]1(NC(=O)[C@@H]1C[C@@H](Oc2ncc(OC)c3ccc(Cl)cc23)CN1C(=O)C(Nc1cc(C)cc(C)n1)C(C)(C)C)C(=O)NS(=O)(=O)C1CC1 (single isomer, unassigned) [22 second isomer] | 0.0006 to 0.02 µM |  | EC50 [2, 5]: 0.1 to 1 µM |
| C=C[C@@H]1C[C@]1(NC(=O)[C@@H]1C[C@@H](Oc2ncc(OC)c3ccc(Cl)cc23)CN1C(=O)C(C)Nc1nsnc1OCC)C(=O)NS(=O)(=O)C1CC1 (some centres unmarked) [Compound 239] | > 0.2 µM | 0.1 to 1 µM |  |
| C=C[C@@H]1C[C@]1(NC(=O)[C@@H]1C[C@@H](Oc2ncc(OC)c3ccc(Cl)cc23)CN1C(=O)[C@@H](Nc1ccc(S(=O)(=O)NC(C)(C)C)cc1)C(C)(C)C)C(=O)NS(=O)(=O)C1CC1 [214 first isomer, N-(4-(tert-butylsulfamoyl)phenyl)-3-methyl-L-valyl-(4R)-4-((7-chloro-4-methoxy-1-isoquinolinyl)oxy)-N-((1R,2S)-1-((cyclopropylsulfonyl)carbamoyl)-2-vinylcyclopropyl)-L-prolinamide] | 0.0006 to 0.02 µM | 0.1 to 1 µM |  |
| C=C[C@@H]1C[C@]1(NC(=O)[C@@H]1C[C@@H](Oc2ncc(OC)c3ccc(Cl)cc23)CN1C(=O)C(Nc1ccc(OC)nc1)C(C)(C)C)C(=O)NS(=O)(=O)C1CC1 (single isomer, unassigned) [408 second isomer] | > 0.2 µM |  | EC50 [2, 5]: 0.1 to 1 µM |
| C=C[C@@H]1C[C@]1(NC(=O)[C@@H]1C[C@@H](Oc2ncc(OC)c3ccc(Cl)cc23)CN1C(=O)C(Nc1nsnc1OC)C(C)C)C(=O)NS(=O)(=O)C1CC1 (some centres unmarked) [Compound 242] | 0.0006 to 0.02 µM | 0.003 to 0.1 µM |  |
| C=C[C@@H]1C[C@]1(NC(=O)[C@@H]1C[C@@H](Oc2nccc3cc(OC)ccc23)CN1C(=O)[C@@H](Nc1nc(OC)nc(OC)n1)C(C)C)C(=O)NS(=O)(=O)C1CC1 [Compound 4, N-(4,6-dimethoxy-1,3,5-triazin-2-yl)valyl-(4R)—N-((1R,2S)-1-((cyclopropylsulfonyl)carbamoyl)-2-vinylcyclopropyl)-4-((6-methoxy-1-isoquinolinyl)oxy)-L-prolinamide] | 0.02 to 0.2 µM | > 1 µM |  |
| C=C[C@@H]1C[C@]1(NC(=O)[C@@H]1C[C@@H](Oc2nc(-c3ccc(OC(F)(F)F)cc3)cc3cc(OC)ccc23)CN1C(=O)[C@@H](NC1=NCCCS1)C(C)(C)C)C(=O)NS(=O)(=O)C1CC1 [Compound 37, N-(5,6-dihydro-4H-1,3-thiazin-2-yl)-3-methyl-L-valyl-(4R)—N-((1R,2S)-1-((cyclopropylsulfonyl)carbamoyl)-2-vinylcyclopropyl)-4-((6-methoxy-3-(4-(trifluoromethoxy)phenyl)-1-isoquinolinyl)oxy)-L-prolinamide] | 0.0006 to 0.02 µM | 0.003 to 0.1 µM |  |
